Reference: ChEMBL document CHEMBL4507291 (2021)

How the values were obtained:
[1] = tested on: Receptor-type tyrosine-protein kinase FLT3 (Homo sapiens), P36888 [D835V]
[2] = target: Platelet-derived growth factor receptor alpha (Homo sapiens) (UniProt P16234)
[3] = target: T1, Aurora kinase C (Homo sapiens) (UniProt Q9UQB9)
T1 sequence (whole entry): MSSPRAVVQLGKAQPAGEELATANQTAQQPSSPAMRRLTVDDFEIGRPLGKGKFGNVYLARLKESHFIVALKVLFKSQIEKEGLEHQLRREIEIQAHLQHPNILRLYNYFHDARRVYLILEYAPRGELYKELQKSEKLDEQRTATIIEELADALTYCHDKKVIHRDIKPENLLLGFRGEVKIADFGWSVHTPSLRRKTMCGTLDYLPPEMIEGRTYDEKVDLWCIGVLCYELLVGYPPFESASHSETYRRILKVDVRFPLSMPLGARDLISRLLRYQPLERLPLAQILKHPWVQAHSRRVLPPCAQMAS

[4] = tested on: Mast/stem cell growth factor receptor Kit (Homo sapiens), P10721 [D816V]
[5] = target: T2, Serine/threonine-protein kinase 4 (Homo sapiens) (UniProt Q13043)
T2 sequence (whole entry): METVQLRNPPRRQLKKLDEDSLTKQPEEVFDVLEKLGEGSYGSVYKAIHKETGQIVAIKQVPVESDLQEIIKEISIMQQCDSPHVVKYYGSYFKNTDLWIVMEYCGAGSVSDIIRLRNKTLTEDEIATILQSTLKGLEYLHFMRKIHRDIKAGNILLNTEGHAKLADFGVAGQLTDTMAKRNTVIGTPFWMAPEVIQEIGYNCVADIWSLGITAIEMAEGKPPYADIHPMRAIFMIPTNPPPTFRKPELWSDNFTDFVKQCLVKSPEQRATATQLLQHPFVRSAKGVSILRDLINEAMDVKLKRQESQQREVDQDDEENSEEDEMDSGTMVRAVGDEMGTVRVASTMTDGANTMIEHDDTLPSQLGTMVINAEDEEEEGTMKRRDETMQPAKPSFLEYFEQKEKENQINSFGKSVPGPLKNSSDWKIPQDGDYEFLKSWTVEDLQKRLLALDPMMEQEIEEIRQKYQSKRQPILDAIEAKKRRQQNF

[6] = target: T3, cAMP-dependent protein kinase catalytic subunit PRKX (Homo sapiens) (UniProt P51817)
T3 sequence (whole entry): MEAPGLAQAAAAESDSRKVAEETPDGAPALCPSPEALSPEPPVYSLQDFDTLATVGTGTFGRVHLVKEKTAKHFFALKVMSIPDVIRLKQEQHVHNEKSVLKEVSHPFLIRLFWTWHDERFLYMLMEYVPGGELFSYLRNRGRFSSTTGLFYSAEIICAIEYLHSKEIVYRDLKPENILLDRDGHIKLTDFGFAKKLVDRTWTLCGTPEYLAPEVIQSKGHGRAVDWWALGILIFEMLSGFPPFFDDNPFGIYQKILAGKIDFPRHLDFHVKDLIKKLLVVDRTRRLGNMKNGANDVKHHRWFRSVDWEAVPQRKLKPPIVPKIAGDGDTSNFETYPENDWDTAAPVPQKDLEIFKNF

[7] = target: Fibroblast growth factor receptor 3 (Homo sapiens) (UniProt P22607)
[8] = target: T4, Serine/threonine-protein kinase Sgk2 (Homo sapiens) (UniProt Q9HBY8)
T4 sequence (whole entry): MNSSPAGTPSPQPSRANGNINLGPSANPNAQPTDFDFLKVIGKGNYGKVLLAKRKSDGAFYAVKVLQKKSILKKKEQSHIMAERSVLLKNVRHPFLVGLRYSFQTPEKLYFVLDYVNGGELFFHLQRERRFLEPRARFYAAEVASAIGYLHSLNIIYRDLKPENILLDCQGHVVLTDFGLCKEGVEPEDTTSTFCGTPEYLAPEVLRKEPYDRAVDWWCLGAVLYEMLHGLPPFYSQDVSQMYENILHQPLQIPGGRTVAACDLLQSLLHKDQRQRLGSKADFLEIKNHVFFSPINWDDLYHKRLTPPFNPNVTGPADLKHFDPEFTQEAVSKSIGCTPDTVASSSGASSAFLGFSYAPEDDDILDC

[9] = target: Homeodomain-interacting protein kinase 3 (Homo sapiens) (UniProt Q9H422)
[10] = target: Serine/threonine-protein kinase ICK (Homo sapiens) (UniProt Q9UPZ9)
[11] = target: Protein kinase C theta type (Homo sapiens) (UniProt Q04759)
[12] = target: T5, cGMP-dependent protein kinase 1 (Homo sapiens) (UniProt Q13976)
T5 sequence (whole entry): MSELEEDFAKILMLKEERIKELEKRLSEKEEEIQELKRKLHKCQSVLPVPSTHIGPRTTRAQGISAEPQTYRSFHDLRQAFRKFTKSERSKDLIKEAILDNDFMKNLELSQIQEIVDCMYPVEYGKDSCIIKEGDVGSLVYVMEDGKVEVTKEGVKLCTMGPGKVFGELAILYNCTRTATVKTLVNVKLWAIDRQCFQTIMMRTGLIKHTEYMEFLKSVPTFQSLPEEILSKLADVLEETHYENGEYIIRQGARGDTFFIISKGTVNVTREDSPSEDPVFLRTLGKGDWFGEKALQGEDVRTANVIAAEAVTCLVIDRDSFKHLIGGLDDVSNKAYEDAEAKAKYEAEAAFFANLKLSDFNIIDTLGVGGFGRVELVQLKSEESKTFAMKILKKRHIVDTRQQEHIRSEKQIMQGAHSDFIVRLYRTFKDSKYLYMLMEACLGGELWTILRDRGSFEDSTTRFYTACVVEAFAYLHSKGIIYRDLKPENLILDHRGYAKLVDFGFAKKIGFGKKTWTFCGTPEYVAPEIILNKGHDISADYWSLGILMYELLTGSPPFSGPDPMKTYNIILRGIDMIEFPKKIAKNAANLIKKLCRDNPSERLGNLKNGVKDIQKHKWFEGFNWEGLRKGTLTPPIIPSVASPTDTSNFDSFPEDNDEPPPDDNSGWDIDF

[13] = target: Cyclin-dependent kinase 18 (Homo sapiens) (UniProt Q07002)
[14] = Compound concentration 1000.0 nM
[15] = Compound concentration 100.0 nM

Measured: residual activity

Protein kinase C theta type (Homo sapiens), sequence (Q04759 whole entry, looked up): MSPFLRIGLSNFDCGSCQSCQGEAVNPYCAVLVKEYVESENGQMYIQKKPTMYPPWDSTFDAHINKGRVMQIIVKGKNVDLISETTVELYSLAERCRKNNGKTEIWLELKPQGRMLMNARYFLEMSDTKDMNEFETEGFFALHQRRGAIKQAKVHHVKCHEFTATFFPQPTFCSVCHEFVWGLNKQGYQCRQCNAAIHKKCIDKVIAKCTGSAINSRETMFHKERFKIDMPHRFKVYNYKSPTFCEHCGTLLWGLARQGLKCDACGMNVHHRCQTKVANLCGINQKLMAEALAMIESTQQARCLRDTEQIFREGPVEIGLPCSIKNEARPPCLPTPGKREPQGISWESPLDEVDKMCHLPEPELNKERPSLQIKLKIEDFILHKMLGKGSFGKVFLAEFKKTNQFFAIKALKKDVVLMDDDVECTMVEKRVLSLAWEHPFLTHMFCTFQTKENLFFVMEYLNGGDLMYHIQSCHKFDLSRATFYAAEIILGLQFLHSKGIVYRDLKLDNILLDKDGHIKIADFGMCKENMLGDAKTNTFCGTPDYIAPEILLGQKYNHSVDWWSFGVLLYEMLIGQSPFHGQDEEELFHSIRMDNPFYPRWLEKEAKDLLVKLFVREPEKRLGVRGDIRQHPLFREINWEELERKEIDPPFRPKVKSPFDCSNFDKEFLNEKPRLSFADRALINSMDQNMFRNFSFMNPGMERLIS
Fibroblast growth factor receptor 3 (Homo sapiens), sequence (P22607 23-806 limits assumed): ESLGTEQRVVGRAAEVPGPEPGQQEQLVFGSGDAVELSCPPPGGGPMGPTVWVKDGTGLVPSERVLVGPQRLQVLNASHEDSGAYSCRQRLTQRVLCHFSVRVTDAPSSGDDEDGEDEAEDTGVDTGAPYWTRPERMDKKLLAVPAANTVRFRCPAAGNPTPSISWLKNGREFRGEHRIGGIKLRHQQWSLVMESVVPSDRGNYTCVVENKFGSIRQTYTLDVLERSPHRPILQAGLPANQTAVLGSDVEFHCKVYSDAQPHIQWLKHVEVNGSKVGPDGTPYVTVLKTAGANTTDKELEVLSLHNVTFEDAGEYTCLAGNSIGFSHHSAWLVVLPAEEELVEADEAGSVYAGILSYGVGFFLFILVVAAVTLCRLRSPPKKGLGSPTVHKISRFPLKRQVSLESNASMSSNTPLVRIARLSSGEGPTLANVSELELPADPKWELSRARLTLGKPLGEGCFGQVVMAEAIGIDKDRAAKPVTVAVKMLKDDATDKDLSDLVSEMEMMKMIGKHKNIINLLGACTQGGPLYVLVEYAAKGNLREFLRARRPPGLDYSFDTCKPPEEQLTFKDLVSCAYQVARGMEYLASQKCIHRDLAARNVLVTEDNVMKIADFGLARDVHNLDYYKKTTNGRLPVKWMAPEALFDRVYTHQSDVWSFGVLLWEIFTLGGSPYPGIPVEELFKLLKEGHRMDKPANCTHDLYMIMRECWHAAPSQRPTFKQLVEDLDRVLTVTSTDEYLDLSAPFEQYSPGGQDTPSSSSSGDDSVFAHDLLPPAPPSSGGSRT
Platelet-derived growth factor receptor alpha (Homo sapiens), sequence (P16234 whole entry): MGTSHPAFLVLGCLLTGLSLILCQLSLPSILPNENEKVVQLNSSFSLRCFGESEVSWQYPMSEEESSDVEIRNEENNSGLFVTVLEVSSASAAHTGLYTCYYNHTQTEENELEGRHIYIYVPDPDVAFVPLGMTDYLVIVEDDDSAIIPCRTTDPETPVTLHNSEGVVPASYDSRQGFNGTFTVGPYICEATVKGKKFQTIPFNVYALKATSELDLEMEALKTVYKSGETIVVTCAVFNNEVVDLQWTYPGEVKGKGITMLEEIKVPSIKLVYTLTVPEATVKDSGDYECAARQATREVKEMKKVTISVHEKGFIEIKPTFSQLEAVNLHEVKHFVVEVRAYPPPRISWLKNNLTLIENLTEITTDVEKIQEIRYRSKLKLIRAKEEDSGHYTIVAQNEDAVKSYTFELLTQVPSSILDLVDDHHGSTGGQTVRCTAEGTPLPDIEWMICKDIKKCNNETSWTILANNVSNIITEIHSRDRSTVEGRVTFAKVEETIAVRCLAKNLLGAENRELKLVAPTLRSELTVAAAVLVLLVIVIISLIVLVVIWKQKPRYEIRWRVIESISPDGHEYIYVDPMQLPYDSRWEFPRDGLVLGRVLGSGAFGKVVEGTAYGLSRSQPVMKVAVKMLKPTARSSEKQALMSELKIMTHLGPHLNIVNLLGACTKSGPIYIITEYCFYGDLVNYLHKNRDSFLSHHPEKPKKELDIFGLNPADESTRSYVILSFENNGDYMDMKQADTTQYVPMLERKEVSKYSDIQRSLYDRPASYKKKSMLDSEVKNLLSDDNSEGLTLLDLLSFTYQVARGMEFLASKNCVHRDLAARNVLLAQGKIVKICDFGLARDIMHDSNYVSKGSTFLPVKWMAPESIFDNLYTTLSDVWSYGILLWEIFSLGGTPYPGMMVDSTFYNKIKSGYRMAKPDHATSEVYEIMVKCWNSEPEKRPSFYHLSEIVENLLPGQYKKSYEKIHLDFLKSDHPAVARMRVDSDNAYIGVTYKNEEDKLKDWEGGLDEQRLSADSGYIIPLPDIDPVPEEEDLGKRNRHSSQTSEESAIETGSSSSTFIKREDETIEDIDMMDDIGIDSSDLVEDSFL
Homeodomain-interacting protein kinase 3 (Homo sapiens), sequence (Q9H422 whole entry, looked up): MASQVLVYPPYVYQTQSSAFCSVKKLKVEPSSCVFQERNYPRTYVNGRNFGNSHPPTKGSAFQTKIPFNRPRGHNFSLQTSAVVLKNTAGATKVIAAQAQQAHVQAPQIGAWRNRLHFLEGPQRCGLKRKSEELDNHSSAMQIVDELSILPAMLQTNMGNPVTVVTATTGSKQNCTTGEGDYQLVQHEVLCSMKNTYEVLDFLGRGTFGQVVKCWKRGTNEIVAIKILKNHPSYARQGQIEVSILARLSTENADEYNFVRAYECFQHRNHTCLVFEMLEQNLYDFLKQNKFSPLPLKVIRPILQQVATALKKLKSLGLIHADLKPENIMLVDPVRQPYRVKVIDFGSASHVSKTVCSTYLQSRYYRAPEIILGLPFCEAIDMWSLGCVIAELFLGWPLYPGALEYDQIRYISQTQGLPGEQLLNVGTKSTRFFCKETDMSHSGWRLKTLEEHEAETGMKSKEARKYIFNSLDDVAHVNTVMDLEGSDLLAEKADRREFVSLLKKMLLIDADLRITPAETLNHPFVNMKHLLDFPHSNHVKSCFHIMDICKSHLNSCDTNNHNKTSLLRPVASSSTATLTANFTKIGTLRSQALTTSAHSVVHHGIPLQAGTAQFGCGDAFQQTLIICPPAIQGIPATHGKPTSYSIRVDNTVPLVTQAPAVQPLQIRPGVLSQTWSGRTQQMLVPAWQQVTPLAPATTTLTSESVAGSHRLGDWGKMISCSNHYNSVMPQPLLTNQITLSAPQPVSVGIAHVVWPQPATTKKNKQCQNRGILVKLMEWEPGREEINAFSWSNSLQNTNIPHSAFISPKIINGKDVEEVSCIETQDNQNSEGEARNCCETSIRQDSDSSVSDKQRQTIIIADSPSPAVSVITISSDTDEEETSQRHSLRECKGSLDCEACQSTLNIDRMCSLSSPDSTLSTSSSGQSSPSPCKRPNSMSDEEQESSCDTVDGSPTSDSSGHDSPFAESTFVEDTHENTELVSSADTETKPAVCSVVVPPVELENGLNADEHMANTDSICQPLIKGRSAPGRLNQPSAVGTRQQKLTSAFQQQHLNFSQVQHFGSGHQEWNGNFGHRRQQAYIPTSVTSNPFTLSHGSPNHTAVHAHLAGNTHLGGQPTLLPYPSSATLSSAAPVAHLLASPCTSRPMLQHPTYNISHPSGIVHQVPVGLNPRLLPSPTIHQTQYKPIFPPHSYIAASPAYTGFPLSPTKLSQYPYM
Cyclin-dependent kinase 18 (Homo sapiens), sequence (Q07002 whole entry): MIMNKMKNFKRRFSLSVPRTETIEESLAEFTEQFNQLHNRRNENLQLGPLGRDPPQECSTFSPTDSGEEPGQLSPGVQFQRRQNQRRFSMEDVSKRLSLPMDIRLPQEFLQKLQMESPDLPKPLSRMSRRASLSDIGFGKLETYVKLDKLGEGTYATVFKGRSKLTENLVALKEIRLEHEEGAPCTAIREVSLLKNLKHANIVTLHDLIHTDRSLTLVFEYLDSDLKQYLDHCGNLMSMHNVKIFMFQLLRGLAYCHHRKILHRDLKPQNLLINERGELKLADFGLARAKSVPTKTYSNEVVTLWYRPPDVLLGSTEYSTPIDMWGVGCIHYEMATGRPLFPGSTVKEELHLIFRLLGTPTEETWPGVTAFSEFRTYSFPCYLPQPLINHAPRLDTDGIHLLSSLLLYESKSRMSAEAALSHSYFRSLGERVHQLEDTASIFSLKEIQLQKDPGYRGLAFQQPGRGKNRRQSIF
Serine/threonine-protein kinase ICK (Homo sapiens), sequence (Q9UPZ9 whole entry): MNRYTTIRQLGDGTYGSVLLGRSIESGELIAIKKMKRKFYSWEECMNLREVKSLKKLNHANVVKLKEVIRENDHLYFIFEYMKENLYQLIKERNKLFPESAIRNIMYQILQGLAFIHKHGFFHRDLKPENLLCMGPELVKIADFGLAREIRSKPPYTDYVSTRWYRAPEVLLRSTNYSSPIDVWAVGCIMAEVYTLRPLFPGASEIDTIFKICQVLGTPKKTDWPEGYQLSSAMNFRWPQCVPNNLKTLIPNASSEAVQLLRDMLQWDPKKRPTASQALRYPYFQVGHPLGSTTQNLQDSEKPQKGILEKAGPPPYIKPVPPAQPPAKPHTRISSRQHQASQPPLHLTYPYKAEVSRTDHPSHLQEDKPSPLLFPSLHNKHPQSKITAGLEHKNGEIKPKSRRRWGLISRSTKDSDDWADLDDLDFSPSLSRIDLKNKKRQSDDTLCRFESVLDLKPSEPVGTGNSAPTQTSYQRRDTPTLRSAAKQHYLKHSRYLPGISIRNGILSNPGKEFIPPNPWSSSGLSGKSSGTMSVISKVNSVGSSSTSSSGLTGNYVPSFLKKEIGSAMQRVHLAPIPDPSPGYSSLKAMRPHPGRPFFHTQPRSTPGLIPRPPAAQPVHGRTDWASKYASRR

C[C@@H]1CN(c2cc(-c3nn(C)c4ccc(OC5(C)CC5)cc34)ncn2)C[C@H](C)O1 [MLi-2-NC]
inactive: [1]; [14] 86% | [2]; [14] 83% | [3]; [14] 100% | [4]; [14] 94% | [5]; [14] 100% | [6]; [14] 92% | [7]; [14] 100% | [8]; [14] 58% | [9]; [14] 91% | [10]; [14] 78% | [11]; [14] 91% | [12]; [14] 100% | [13]; [14] 100%

C[C@@H]1CN(c2cc(-c3n[nH]c4ccc(OC5(C)CC5)cc34)ncn2)C[C@H](C)O1 [MLi-2]
inactive: [1]; [15] 73% | [2]; [15] 75% | [3]; [15] 100% | [4]; [15] 79% | [5]; [15] 83% | [6]; [15] 86% | [7]; [15] 74% | [8]; [15] 84% | [9]; [15] 73% | [10]; [15] 62% | [11]; [15] 74% | [12]; [15] 100% | [13]; [15] 100%
